From publication PMC4658208 (Journal of medicinal chemistry, 2015)

What was measured:
[1] = test system: rabbit reticulocytes, eukaryotic TT; assay: Eukaryotic TT assay using rabbit reticulocytes; assay type: biochemical; details: read-out: IC50 eukaryotic TT assay, data not shown
[2] = test system: S30 extracts of E. coli, coupled Transcription-Translation (RNA polymerase)
[3] = test system: S30 extracts of E. coli, coupled Transcription-Translation (RNA polymerase); details: high-throughput screen hit; cited from earlier work
[4] = equilibrium solubility
[5] = logD7.4
[6] = test system: H. influenzae acrB; assay: Antibacterial activity; assay type: cell-based, Haemophilus influenzae; details: efflux-negative strain
[7] = cited from earlier work

3,5-dimethyl-N-(2-(4-(4-methylbenzyl)piperidin-1-yl)-3,4-dioxocyclobut-1-enyl)isoxazole-4-sulfonamide [compound 1]
IC50 [1]: > 100 µM
fu, compound fraction unbound to human plasma protein (human plasma, minimum detection level 1%): <1%
IC50 ([2]; read-out: IC50 Eco-TT, E. coli coupled transcription-translation assay): 0.28 µM
half maximal inhibitory concentration (IC50), TT assay [3]: sub-micromolar
Solubility [4]: >1000 µM
logD [5]: 0.1
MIC H. influenzae acrB [6]: 200 µM

O=c1c(NS(=O)(=O)c2ccccc2)c(N2CCC(Cc3ccccc3)CC2)c1=O [compound 2, N-(2-(4-benzylpiperidin-1-yl)-3,4-dioxocyclobut-1-enyl)benzenesulfonamide]
reduction in activity/potency in the TT assay ([2]; compared to compound 1): 7 fold

Cc1nn(C(F)F)cc1S(=O)(=O)Nc1c(N2CCC(Cc3ccccc3)CC2)c(=O)c1=O [compound 3, N-(2-(4-benzylpiperidin-1-yl)-3,4-dioxocyclobut-1-enyl)-1-(difluoromethyl)-3-methyl-1H-pyrazole-4-sulfonamide]
biochemical activity in TT assay, in words [2]: biochemically active

Cc1noc(C)c1C(=O)Nc1c(N2CCC(Cc3ccccc3)CC2)c(=O)c1=O [compound 4, N-(2-(4-benzylpiperidin-1-yl)-3,4-dioxocyclobut-1-enyl)-3,5-dimethylisoxazole-4-carboxamide]
biochemical activity in TT assay, in words [2]: inactive

Cc1noc(C)c1S(=O)(=O)Nc1c(N2CCC(C)CC2)c(=O)c1=O [compound 5, 3,5-dimethyl-N-(2-(4-methylpiperidin-1-yl)-3,4-dioxocyclobut-1-enyl)isoxazole-4-sulfonamide]
biochemical activity in TT assay, in words [2]: inactive

Cc1noc(C)c1S(=O)(=O)Nc1c(N2CCC(c3ccccc3)CC2)c(=O)c1=O [compound 6, N-(3,4-dioxo-2-(4-phenylpiperidin-1-yl)cyclobut-1-enyl)-3,5-dimethylisoxazole-4-sulfonamide]
biochemical activity in TT assay, in words [2]: much less active

Cc1noc(C)c1S(=O)(=O)Nc1c(N2CCC(NCc3ccc(C(F)(F)F)cc3)CC2)c(=O)c1=O [compound 14, N-(3,4-dioxo-2-(4-(4-(trifluoromethyl)benzylamino)piperidin-1-yl)cyclobut-1-enyl)-3,5-dimethylisoxazole-4-sulfonamide]
improvement of free fraction (fu) (compound 14 versus compound 8): 7 fold
reduction of free fraction (compound 14 versus compound 13): four

Cc1noc(C)c1S(=O)(=O)Nc1c(N2CCC(N(C)CC3CCCCC3)CC2)c(=O)c1=O [compound 17, N-(2-(4-((cyclohexylmethyl)(methyl)amino)piperidin-1-yl)-3,4-dioxocyclobut-1-enyl)-3,5-dimethylisoxazole-4-sulfonamide]
biochemical activity in TT assay, in words [2]: inactive

myxopyronin
plasma protein binding, in words [7]: highly plasma protein bound
